Target: Human TrkA Protein (Homo sapiens (Human), UniProt P04629)
Test: Evaluation of Binding Activity for Human TrkA Protein (TrkA LanthaScreen Eu Kinase Binding Assay)
Settings: TrkA enzyme, Kinase Tracer 236, TR-FRET, 60 minutes at room temperature
Description: (Pharmacological Experimental Example 1): Evaluation of Binding Activity for Human TrkA Protein
Measurement was carried out using TrkA LanthaScreen (registered trademark) Eu Kinase Binding Assay (ThermoFisher SCIENTIFIC). To a 384 well plate (Corning), 2.5 μL of the test compound having various concentrations and diluted with Kinase buffer (ThermoFisher SCIENTIFIC) and 2.5 μL of 15 nM TrkA enzyme (ThermoFisher SCIENTIFIC) were added. Moreover, […] Eu-anti-His Tag antibody (ThermoFisher SCIENTIFIC) and 5 μL of 30 nM Kinase (registered trademark) Tracer 236 (ThermoFisher SCIENTIFIC) were added, followed by reaction at room temperature for 60 minutes. After the reaction, the fluorescence intensity of Europium (Emission wavelength 615 nm) and TR-FRET (Emission wavelength 665 nm) with an excitation wavelength of 340 nm were measured with EnVision 2100 (PerkinElmer) to calculate the fluorescence ratio as the amount of the test compound and the TrkA enzyme bonded. The inhibitory activity (IC50 value) of each test compound was calculated with the fluorescence ratio of the well to which a solvent was added instead of the test compound being 0% and the fluorescence ratio of the well without addition of the TrkA protein being 100%.
In Table 1, […] mean Compounds 1 to 62 synthesized in accordance with Examples 1 to 62 described later.

Human TrkA Protein, sequence (P04629 33-796): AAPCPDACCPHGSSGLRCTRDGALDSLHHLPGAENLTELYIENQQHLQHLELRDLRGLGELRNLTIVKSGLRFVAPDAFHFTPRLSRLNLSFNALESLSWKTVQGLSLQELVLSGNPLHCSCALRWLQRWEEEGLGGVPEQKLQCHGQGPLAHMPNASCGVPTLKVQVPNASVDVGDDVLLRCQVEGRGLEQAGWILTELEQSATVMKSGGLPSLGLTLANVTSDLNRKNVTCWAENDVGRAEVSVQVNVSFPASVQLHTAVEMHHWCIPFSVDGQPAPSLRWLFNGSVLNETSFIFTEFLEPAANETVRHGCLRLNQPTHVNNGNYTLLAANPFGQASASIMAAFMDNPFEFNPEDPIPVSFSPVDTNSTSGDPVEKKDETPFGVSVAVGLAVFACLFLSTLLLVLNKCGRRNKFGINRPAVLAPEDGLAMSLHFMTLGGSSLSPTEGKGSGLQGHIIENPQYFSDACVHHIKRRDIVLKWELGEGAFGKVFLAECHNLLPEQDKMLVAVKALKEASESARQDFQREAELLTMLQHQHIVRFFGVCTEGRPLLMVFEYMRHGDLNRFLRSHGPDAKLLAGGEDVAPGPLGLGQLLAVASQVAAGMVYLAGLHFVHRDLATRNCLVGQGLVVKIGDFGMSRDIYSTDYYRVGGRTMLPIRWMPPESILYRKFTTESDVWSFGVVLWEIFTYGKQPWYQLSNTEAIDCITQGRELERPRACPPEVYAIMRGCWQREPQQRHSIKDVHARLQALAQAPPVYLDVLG

IC50	Molecule
50 to 1000 nM	Cc1cc(NC(=O)N[C@@H]2c3cc(F)c(F)cc3C(C)(C)C[C@H]2O)c(C2CCOCC2)nc1C(=O)NCC(C)(C)O (racemic) [Compound 60, rac-5-(3-((1R,2R)-6,7-difluoro-2-hydroxy-4,4-dimethyl-1,2,3,4-tetrahydronaphthalen-1-yl)ureido)-N-(2-hydroxy-2-methylpropyl)-3-methyl-6-(tetrahydro-2H-pyran-4-yl)picolinamide]
50 to 1000 nM	Cc1cc(NC(=O)N[C@@H]2c3cc(F)c(F)cc3C(C)(C)C[C@H]2O)c(C2CCOCC2)nc1-c1cn[nH]c1 (racemic) [Compound 61, rac-1-((1R,2R)-6,7-difluoro-2-hydroxy-4,4-dimethyl-1,2,3,4-tetrahydronaphthalen-1-yl)-3-(5-methyl-6-(1H-pyrazol-4-yl)-2-(tetrahydro-2H-pyran-4-yl)pyridin-3-yl)urea]
≤ 50 nM	Cc1ncc(-c2nc(-c3ccccc3)c(NC(=O)N[C@@H]3c4ccccc4C(C)(C)C[C@H]3O)cc2C)cn1 [Compound 9, 1-((1R,2R)-2-hydroxy-4,4-dimethyl-1,2,3,4-tetrahydronaphthalen-1-yl)-3-(5-methyl-6-(2-methylpyrimidin-5-yl)-2-phenylpyridin-3-yl)urea]
≤ 50 nM	Cc1cc(NC(=O)N[C@@H]2c3ccccc3C(C)(C)C[C@H]2O)c(-c2ccccc2)nc1-c1cnn(C)c1 [Compound 10, 1-((1R,2R)-2-hydroxy-4,4-dimethyl-1,2,3,4-tetrahydronaphthalen-1-yl)-3-(5-methyl-6-(1-methyl-1H-pyrazol-4-yl)-2-phenylpyridin-3-yl)urea]
≤ 50 nM	Cc1ccc(-c2nc(-c3ccccc3)c(NC(=O)N[C@@H]3c4ccccc4C(C)(C)C[C@H]3O)cc2C)cn1 [Compound 12, 1-(3,6′-dimethyl-6-phenyl-[2,3′-bipyridin]-5-yl)-3-((1R,2R)-2-hydroxy-4,4-dimethyl-1,2,3,4-tetrahydronaphthalen-1-yl)urea]
≤ 50 nM	Cc1cc(NC(=O)N[C@@H]2c3ccccc3C(C)(C)C[C@H]2O)c(-c2ccccc2)nc1-c1ccc(C#N)nc1 [Compound 13, 1-(6′-cyano-3-methyl-6-phenyl-[2,3′-bipyridin]-5-yl)-3-((1R,2R)-2-hydroxy-4,4-dimethyl-1,2,3,4-tetrahydronaphthalen-1-yl)urea]
≤ 50 nM	Cc1cc(NC(=O)N[C@@H]2c3ccccc3C(C)(C)C[C@H]2O)c(-c2ccccc2)nc1-c1ccc(S(C)(=O)=O)nc1 [Compound 14, 1-((1R,2R)-2-hydroxy-4,4-dimethyl-1,2,3,4-tetrahydronaphthalen-1-yl)-3-(3-methyl-6′-(methylsulfonyl)-6-phenyl-[2,3′-bipyridin]-5-yl)urea]
≤ 50 nM	Cc1cc(NC(=O)N[C@@H]2c3ccccc3C(C)(C)C[C@H]2O)c(-c2ccccc2)nc1-c1ccc(C#N)cc1 [Compound 16, 1-(6-(4-cyanophenyl)-5-methyl-2-phenylpyridin-3-yl)-3-((1R,2R)-2-hydroxy-4,4-dimethyl-1,2,3,4-tetrahydronaphthalen-1-yl)urea]
≤ 50 nM	Cc1cc(NC(=O)N[C@@H]2c3ccccc3C(C)(C)C[C@H]2O)c(-c2ccccc2)nc1-c1ccnc(C(F)(F)F)c1 [Compound 17, 1-((1R,2R)-2-hydroxy-4,4-dimethyl-1,2,3,4-tetrahydronaphthalen-1-yl)-3-(3-methyl-6-phenyl-2′-(trifluoromethyl)-[2,4′-bipyridin]-5-yl)urea]
≤ 50 nM	Cc1cc(NC(=O)N[C@@H]2c3ccccc3C(C)(C)C[C@H]2O)c(-c2ccccc2)nc1-c1cn[nH]c1 [Compound 18, 1-((1R,2R)-2-hydroxy-4,4-dimethyl-1,2,3,4-tetrahydronaphthalen-1-yl)-3-(5-methyl-2-phenyl-6-(1H-pyrazol-4-yl)pyridin-3-yl)urea]
≤ 50 nM	Cc1cc(NC(=O)N[C@@H]2c3ccccc3C(C)(C)C[C@H]2O)c(-c2ccccc2)nc1-c1cnc(O)nc1 [Compound 19, 1-((1R,2R)-2-hydroxy-4,4-dimethyl-1,2,3,4-tetrahydronaphthalen-1-yl)-3-(6-(2-hydroxypyrimidin-5-yl)-5-methyl-2-phenylpyridin-3-yl)urea]
≤ 50 nM	Cc1cc(NC(=O)N[C@@H]2c3ccccc3C(C)(C)C[C@H]2O)c(-c2ccccc2)nc1-c1ccc(O)nc1 [Compound 20, 1-(6′-hydroxy-3-methyl-6-phenyl-[2,3′-bipyridin]-5-yl)-3-((1R,2R)-2-hydroxy-4,4-dimethyl-1,2,3,4-tetrahydronaphthalen-1-yl)urea]

Further lines, the molecule ahead of its results:

Molecule	IC50
Cc1ncc(-c2nc(C3CCOCC3)c(NC(=O)N[C@@H]3c4cc(F)c(F)cc4C(C)(C)C[C@H]3O)cc2C)cn1 (racemic) [Compound 59, rac-1-((1R,2R)-6,7-difluoro-2-hydroxy-4,4-dimethyl-1,2,3,4-tetrahydronaphthalen-1-yl)-3-(5-methyl-6-(2-methylpyrimidin-5-yl)-2-(tetrahydro-2H-pyran-4-yl)pyridin-3-yl) urea]	50 to 1000 nM
Cc1cc(NC(=O)N[C@@H]2c3cc(F)c(F)cc3C(C)(C)C[C@H]2O)c(C2CCOCC2)nc1-c1cn[nH]c1 (racemic) [Compound 61a]	50 to 1000 nM
Cc1cc(NC(=O)N[C@@H]2c3cc(F)c(F)cc3C(C)(C)C[C@H]2O)c(C2CCOCC2)nc1-c1cnc(O)nc1 (racemic) [Compound 62, rac-1-((1R,2R)-6,7-difluoro-2-hydroxy-4,4-dimethyl-1,2,3,4-tetrahydronaphthalen-1-yl)-3-(6-(2-hydroxypyrimidin-5-yl)-5-methyl-2-(tetrahydro-2H-pyran-4-yl)pyridin-3-yl)urea]	50 to 1000 nM
Cc1cnc(-c2ccccc2)c(NC(=O)N[C@@H]2c3ccccc3C(C)(C)C[C@H]2O)c1 [Compound 7, 1-((1R,2R)-2-hydroxy-4,4-dimethyl-1,2,3,4-tetrahydronaphthalen-1-yl)-3-(5-methyl-2-phenylpyridin-3-yl)urea]	≤ 50 nM
Cc1cc(NC(=O)N[C@@H]2c3ccccc3C(C)(C)C[C@H]2O)c(-c2ccccc2)nc1CO [Compound 8, 1-((1R,2R)-2-hydroxy-4,4-dimethyl-1,2,3,4-tetrahydronaphthalen-1-yl)-3-(6-(hydroxymethyl)-5-methyl-2-phenylpyridin-3-yl)urea]	≤ 50 nM
Cc1cc(NC(=O)N[C@@H]2c3ccccc3C(C)(C)C[C@H]2O)c(-c2ccccc2)nc1-c1cncc(C(F)(F)F)c1 [Compound 11, 1-((1R,2R)-2-hydroxy-4,4-dimethyl-1,2,3,4-tetrahydronaphthalen-1-yl)-3-(3-methyl-6-phenyl-5′-(trifluoromethyl)-[2,3′-bipyridin]-5-yl)urea]	≤ 50 nM
Cc1cc(NC(=O)N[C@@H]2c3ccccc3C(C)(C)C[C@H]2O)c(-c2ccccc2)nc1-c1cnc(C(F)(F)F)nc1 [Compound 15, 1-((1R,2R)-2-hydroxy-4,4-dimethyl-1,2,3,4-tetrahydronaphthalen-1-yl)-3-(5-methyl-2-phenyl-6-(2-(trifluoromethyl)pyrimidin-5-yl)pyridin-3-yl)urea]	≤ 50 nM
Cc1cc(NC(=O)N[C@@H]2c3ccccc3C(C)(C)C[C@H]2O)c(-c2ccccc2)nc1-c1cnc(C(C)(C)O)nc1 [Compound 21, 1-((1R,2R)-2-hydroxy-4,4-dimethyl-1,2,3,4-tetrahydronaphthalen-1-yl)-3-(6-(2-(2-hydroxypropan-2-yl)pyrimidin-5-yl)-5-methyl-2-phenylpyridin-3-yl)urea]	≤ 50 nM
rac-1-((1R,2R)-6,7-difluoro-2-hydroxy-4,4-dimethyl-1,2,3,4-tetrahydronaphthalen-1-yl)-3-(2-(hydroxymethyl)-3-methyl-6-phenyl-[2,4′-bipyridin]-5-yl)urea [Compound 56]	≤ 50 nM
